Consider four compounds from US5665760A, “Lyophilized thioxanthenone antitumor agents” (priority 1995, dated 1997).

Data set [1] has as its system Mammary 16/C/Adr. As to the kind of experiment: antitumor activity in mice against Mammary 16/C/Adr (adriamycin resistant). The class given is in vivo. How it is done:
(§1) Representative examples of the invention were tested for antitumor activity in mice according to the following procedure:
(§2) The animals were pooled, implanted subcutaneously with 30 to 60 mg tumor fragments by 12-gauge trocar, and again pooled before unselective distribution to the various treatment and control groups. For early-stage treatment, chemotherapy was started within 1 to 5 days after tumor implantation while the number of cells was relatively small (10^7 to 10^8 cells). For advanced-stage treatment, chemotherapy was delayed until the tumor became relatively large (200 to 300 mg in size). A 300-mg tumor contains approximately 3×10^8 total cells. Tumors within a given advanced-stage trial were within a 2.5-fold size range for 90% of the animals. Tumors were measured with a caliper weekly (or twice weekly for the more rapidly growing tumors). Mice were sacrificed when their tumors reached 1500 mg (i.e., before they can cause the animal discomfort). Tumor weights were estimated from two-dimensional measurements.
(§3) The treatment and control groups were measured when the control group tumors reached approximately 700 to 1200 mg in size (Median of Group). The median tumor weight of each group was determined (including zeros). The T/C value (weight of treated tumors over the weight of control tumors) in percent is an indication of antitumor effectiveness: A T/C equal to or less than 42% is considered significant antitumor activity by the Drug Evaluation Branch of the Division of Cancer Treatment (NCl). A T/C value <10% is considered to indicate highly significant antitumor activity. A body weight loss nadir (mean of group) of greater than 20% or greater than 20% drug-deaths is considered to indicate an excessively toxic dosage.

The test system of data set [2] is colon adenocarcinoma #38. The experiment in a line: antitumor activity in mice against colon adenocarcinoma #38. It is filed as in vivo.
Data set [3] deals with Colon 51/A. As to the kind of experiment: antitumor activity in mice against Colon 51/A. It is filed as in vivo. The following applies: p.o. days 3-7. How it is done: as §1
as §2, with “Tumors within a given advanced-stage trial were within a 2.5-fold size range for 90% of the animals.” left out
(§4) The treatment and control groups were measured when the control group tumors reached approximately 700 to 1200 mg in size (Median of Group). The median tumor weight of each group was determined (including zeros). […] A T/C value <10% is considered to indicate highly significant antitumor activity.

The conditions of data set [4]: excipient alone; cited from earlier work.
Data set [5] relates to Mammary 16/C. As to the kind of experiment: antitumor activity in mice against Mammary 16/C. It is filed as in vivo. The following applies: 4 hr infusion days 1, 4; for Tumor Free: 13 days of observation. How it is done:
as §1
as §2, with “Tumors within a given advanced-stage trial were within a 2.5-fold size range for 90% of the animals.” left out
as §4

The test system of data set [6] is pancreatic ductal adenocarcinoma #03. The experiment in a line: antitumor activity in mice against pancreatic ductal adenocarcinoma #03 (Panc 03). It is filed as in vivo.
The test system of data set [7] is Human Adeno Squamous Lung #125. As to the kind of experiment: antitumor activity in mice against Human Adeno Squamous Lung #125. The class given is in vivo. The following applies: 16 hr infusion days 7, 20.
Data set [8] relates to Colon #51. As to the kind of experiment: antitumor activity in mice against Colon #51. The following applies: 3 hr infusion days 3, 7; for Tumor Free: 50 days of observation. It is filed as in vivo. How it is done:
as §1, §2, §3

Setting [9] is: 960 mg/kg total, 3 hr infusion days 1, 4.
Where [10] appears, read: 600 mg/kg total, 4 hr infusion days 6, 13.
Setting [11] is: 960 mg/kg total, 4 hr infusion days 6, 13.

Several values for one entry are separate records, joined by “and”; a condition that tells them apart may be missing. Equal entries are not always repeated.

With `CCN(CC)CCNc1ccc(CN(C)S(C)(=O)=O)c2sc3ccccc3c(=O)c12` [Example 8(a), N-[[1-[[2-(Diethylamino)ethyl)amino]-9-oxothioxanthen-yl]methyl]N-methylmethanesulfonamide], the “Drug Deaths” value was 5/6 and 3/6 and 0/4 in data set [1] (mouse, in vivo); 0 in data set [2] (mouse, in vivo). Further, the “T/C Value” in data set [2] (112 mg/kg total, i.p. days 3-10) is listed as 3%; in data set [2] (196 mg/kg total, i.p. days 3-10), 0%; in data set [2] (275 mg/kg total, p.o. days 3-7), 0%; in data set [2] (340 mg/kg total, i.p. days 3-10), 0%; in data set [2] (550 mg/kg total, p.o. days 3-7), 0%; in data set [3] (250 mg/kg total) it was 16%. Also, in data set [3] (500 mg/kg total), the “T/C Value” is recorded as 0%. Moreover, the “Wt. Loss at Nadir” value in data set [3] (250 mg/kg total) was -1.6 g/mouse; in data set [3] (500 mg/kg total) it was -4.6 g/mouse.

For the compound `OC[C@H]1O[C@@](CO)(O[C@H]2O[C@H](CO)[C@@H](O)[C@H](O)[C@H]2O)[C@@H](O)[C@@H]1O` [sucrose], the “glass transition temperature of excipient” value in data set [4] is -32 °C.

On to `[Cl-].[Na+]` [NaCl, sodium chloride], for which the “glass transition temperature of excipient” value in data set [4] was -87 °C.

As for `CCN(CC)CCNc1ccc(CNC)c2sc3ccccc3c(=O)c12` [Example 5, 1-[[2-(Diethylamino)ethyl]amino]-4-[(methylamino)-methyl]thioxanthen-9-one], the “T/C Value” in data set [5] (454 mg/kg total) is 16%; in data set [5] (720 mg/kg total) it was 18%; in data set [1] (setting [9]), 23%; in data set [2] (477 mg/kg total, 3-15 bolus), 9%; in data set [2] (setting [10]), 26%; in data set [2] (732 mg/kg total, 3-15 bolus), 0%. Besides, the “T/C Value” in data set [2] (setting [11]) was 11%; in data set [6] (222 mg/kg total, 3 hr infusion), 0%; in data set [7] (600 mg/kg total) it was 15%; in data set [7] (960 mg/kg total), 16%; in data set [8] (454 mg/kg total), 12%; in data set [8] (720 mg/kg total), 8%. Also, the “Wt. Loss at Nadir” value in data set [5] (454 mg/kg total) is given as -1.2 g/mouse; in data set [5] (720 mg/kg total), -2.0 g/mouse; in data set [1] (setting [9]), -2.8 g/mouse; in data set [2] (477 mg/kg total, 3-15 bolus) it was -2.8 g/mouse; in data set [2] (setting [10]), -2.0 g/mouse; in data set [2] (732 mg/kg total, 3-15 bolus), -2.0 g/mouse. Besides, the “Wt. Loss at Nadir” value in data set [2] (setting [11]) is given as -2.9 g/mouse; in data set [6] (222 mg/kg total, 3 hr infusion), -1.6 g/mouse; in data set [7] (600 mg/kg total), -0.4 g/mouse; in data set [7] (960 mg/kg total) it was -0.4 g/mouse; in data set [8] (454 mg/kg total) it was -2.8 g/mouse; in data set [8] (720 mg/kg total) it was -1.1 g/mouse. The “Tumor Free” value in data set [5] (454 mg/kg total) is on record as 0/7; in data set [5] (720 mg/kg total) it was 0/7; in data set [2] (477 mg/kg total, 3-15 bolus, 100 days of observation), 0/5; in data set [2] (600 mg/kg total, 4 hr infusion days 6, 13, 20 days of observation), 0/7; in data set [2] (600 mg/kg total, 4 hr infusion days 6, 13, 100 days of observation), 0/7; in data set [2] (732 mg/kg total, 3-15 bolus, 100 days of observation), 1/5. Moreover, the “Tumor Free” value is listed as 2/7 in data set [2] (960 mg/kg total, 4 hr infusion days 6, 13, 20 days of observation); 1/7 in data set [2] (960 mg/kg total, 4 hr infusion days 6, 13, 100 days of observation); 1/4 in data set [6] (222 mg/kg total, 3 hr infusion, 108 days of observation); 0/5 in data set [7] (600 mg/kg total, 33 days of observation); 0/5 in data set [7] (600 mg/kg total, 132 days of observation); 1/4 in data set [7] (960 mg/kg total, 33 days of observation). The “Tumor Free” value in data set [7] (960 mg/kg total, 132 days of observation) was 0/4; in data set [8] (454 mg/kg total), 0/7; in data set [8] (720 mg/kg total), 0/5. Also, the “activity against colon adenocarcinoma #38” value in data set [2] (300 mg/kg p.o.) is recorded as “active”. Further, the “Drug Deaths” value in data set [2] (Table 2, i.v., total dose mg/kg by Example: 2:600, 5:960, 6:132, 7:840, 16(a):1000, 18(e):180) is 0; in data set [6] (Table 1, total doses as in E1), 0. In addition, the T/C (as a rule, the ratio of treated to control) is recorded as 11% in data set [2] (iv) and 0% in data set [6]. Also, the “Weight Loss” value worked out at 2.9 g in data set [2] (mouse, in vivo, iv) and 1.6 g in data set [6] (Table 1, average body weight 25 g, total doses as in E1).
